Experimental data reported in BindingDB's records for doi:10.1021/jm00163a035 (Sri International, 1990).

Target: T1, Dihydrofolate reductase (Homo sapiens, UniProt P00374)
T1 sequence (P00374 whole entry): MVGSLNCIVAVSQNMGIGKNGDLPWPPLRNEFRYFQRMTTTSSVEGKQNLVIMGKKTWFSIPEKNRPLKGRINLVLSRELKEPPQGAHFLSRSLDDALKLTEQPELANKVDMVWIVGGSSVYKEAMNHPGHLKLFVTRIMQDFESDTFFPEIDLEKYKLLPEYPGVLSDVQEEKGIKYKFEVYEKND
Assay: ChEBML_54117
Excerpt: Inhibitory activity towards dihydrofolate reductase derived from human manca leukemia cells

IC50: 70 nM
Compound: CCC(Cc1ccc(C(=O)NC(CCC(=O)O)C(=O)O)cc1)c1cnc2nc(N)nc(N)c2n1 (stereo unspecified)
